Read-outs that look alike come from different tables or passages of the source.
Experiments:
[1] = tested on: induced IgG antibodies by DT-RM4.7/C34 vaccine; assay: Specificity analysis of antibodies induced by DT-RM4.7/C34 vaccine on glycan microarray; format: binding, mouse; conditions: sera of DT-RM4.7/C34-immunized mice; for binding of induced antibodies to glycan, microarray of STn, DSGG, RM2 antigen, analogs and fragments: FIG. 15; for binding of induced IgG antibodies to glycan: FIG. 14
Protocol: It was observed that these oligosaccharides all contain the same epitope trisaccharide 27 (NeuAcα2→6GlcNAcβ1→3Galβ1→R). To further evaluate the vaccine specificity, a glycan microarray created by STn, DSGG, RM2 antigen, RM2 antigen analogs, and RM2 antigen fragments was constructed (FIG. 15).
Microarrays were printed (BioDot; CartesianTechnologies) by robotic pin (SMP3; TeleChem In-ternational Inc.) deposition of 0.7 nL 100 μM amine-containing glycans in printing buffer (300 mM phosphate buffer, pH 8.5, containing 0.01% TritonX-100) from a […] microtiter plate onto N-Hydroxysuccinimide (NHS)-coated glass slides. Subsequently, a 96-glycan microarray (Fig. S2) was used to determine the polyclonal Ab spectrum of DT-RM series-induced antiserum. Printed slides were allowed to react in an atmosphere of 80% humidity for 1 h followed by desiccation overnight. These slides were stored at room temperature in a desiccator prior to use.
Mouse sera were diluted with 1% BSA/PBST buffer (PBST buffer: PBS and 0.05% Tween-20, pH 7.4). The glycan microarray was blocked with 50 mM ethanolamine for 1 h at 0° C. and washed three times with PBST buffer before use. The serum dilutions were then introduced to the glycan microarray and incubated at 0° C. for 1 h. Next, Cy3-conjugated goat anti-mouse IgG (H+L), IgG1, IgG2a, IgG2b, IgG2c, IgG3, or anti-mouse IgM was added to the microarray slide and then sealed for 1 h incubation at 0° C. in the dark. Finally, the slides were washed three times with PBST, PBST washing buffer, and ddH2O in sequence. The slides were spin-dried for 5 minutes before scanned at 635 nm with a microarray fluorescence chip reader (GenePix 4300A; Molecular Devices Corporation). Scanned images were analyzed with GenePix Pro-6.0 analysis software (Axon Instruments, Union City, Calif., USA).

monoclonal RM2 antibody = assay: Determination of surface dissociation constant (KD,surf) on glycan microarray; format: binding, mouse
Protocol: An expanded glycan array containing the synthesized hexasaccharide 1 and its analogs along with the other ninety glycans are incorporated to a glycan array for testing (Figure S4). All glycans were directly immobilized onto NHS-coated glass slides by taking an aliquot from a stock solution of sugar at a fixed concentration (100 μM). The assay involved an initial treatment with RM2 (a mouse IgM anti-RM2 monoclonal antibody, a kind gift from Prof. Saito), followed by incubation with a fluorescein-tagged anti mouse IgM secondary antibody against its primary antibody. After one hour incubation, the slides were washed with ddH2O twice and scanned to show the binding specificity of the antibody to printed oligosaccharides. […] To determine the dissociation the dissociation constants of RM2 and truncated analogs on the surface interacting with the antibody in a multivalent manner, the direct measurement method was experimented (Liang, P. H.; Wang, S. K.; Wong, C. H. J. Am. Chem. Soc. 2007, 129, 11177), using different concentrations of antibodies and printed sugars. […] At the printing concentrations from 100 μM to 6.25 μM, however, it was observed that the KD,surf values measured were narrowly distributed from the individual curves (FIG. 20 and Table 1). Using the same method, the KD,surf values were determined for the truncated RM2 analog 29 interacting with the antibody (FIG. 21 and Table S2).
The slides were spotted with solution of RM2 1 and 29 with concentrations 100, 50, 25, 12.5, and 6.25 μM 2 rows from top to bottom with 5 replicates horizontally placed in each grids. The glycan microarray was blocked with 50 mM ethanolamine for 1 h at 0° C. and washed three times with PBST buffer before use. The monoclonal RM2 antibody was diluted with 3% BSA/PBST buffer (PBST buffer: PBS and 0.05% Tween-20, pH 7.4). Next, Cy3-conjugated goat anti-mouse IgM antibody was added into the diluted solution to precomplex with primary antibody. The precomplexed solution was applied to each well and incubated at 0° C. for 1 h in the dark. Finally, the slides were washed by PBST washing buffer and ddH2O in sequence. The slides were spin-dried for 5 minutes before scanned at 635 nm with a microarray fluorescence chip reader (GenePix 4300A; Molecular Devices Corporation). Scanned images were analyzed with GenePix Pro-6.0 analysis software (Axon Instruments, Union City, Calif., USA).

[2] = tested on: RM2 (a mouse IgM anti-RM2 monoclonal antibody); assay: Glycan array binding specificity of monoclonal antibody RM2; conditions: glycans printed at 100 μM; FIG. 11
Protocol: An expanded glycan array containing the synthesized hexasaccharide 1 and its analogs along with the other ninety glycans are incorporated to a glycan array for testing (Figure S4). All glycans were directly immobilized onto NHS-coated glass slides by taking an aliquot from a stock solution of sugar at a fixed concentration (100 μM). The assay involved an initial treatment with RM2 (a mouse IgM anti-RM2 monoclonal antibody, a kind gift from Prof. Saito), followed by incubation with a fluorescein-tagged anti mouse IgM secondary antibody against its primary antibody. After one hour incubation, the slides were washed with ddH2O twice and scanned to show the binding specificity of the antibody to printed oligosaccharides. […] To determine the dissociation the dissociation constants of RM2 and truncated analogs on the surface interacting with the antibody in a multivalent manner, the direct measurement method was experimented (Liang, P. H.; Wang, S. K.; Wong, C. H. J. Am. Chem. Soc. 2007, 129, 11177), using different concentrations of antibodies and printed sugars. […] Using the same method, the KD,surf values were determined for the truncated RM2 analog 29 interacting with the antibody (FIG. 21 and Table S2). […]

[3] = antibody RM2, glycan printed on microarray, read-out: KD, surf (nM) ± SD

In the case of `CC(=O)N[C@H]1[C@H]([C@H](O)[C@H](O)CO)O[C@@](OC[C@H]2OC(O)[C@H](O)[C@@H](O)[C@H]2O)(C(=O)O)C[C@@H]1O` (stereo partly shown) [NeuAcα2→6Gal, reference compound], the “binding of induced antibodies to glycan, microarray of STn, DSGG, RM2 antigen, analogs and fragments” value (“binding … analogs and fragments” for short) [1] is reported as “no detectable signal of binding”.

In the case of `CC(=O)NC1[C@H](O[C@@H]2[C@H](O)[C@@H](O)[C@H](O[C@H]3[C@H](O)[C@@H](CO[C@]4(C(=O)O)C[C@H](O)[C@@H](NC(C)=O)[C@H]([C@H](O)[C@H](O)CO)O4)O[C@@H](O[C@H]4[C@@H](O)[C@@H](CO)O[C@@H](OCCCCCN)[C@@H]4O)[C@@H]3NC(C)=O)O[C@@H]2CO)O[C@H](CO)[C@H](O)[C@@H]1O` (stereo partly shown) [Compound 29], the Fmax (monoclonal RM2 antibody; 29 on microarray, printing concentration 6.25 μM) is reported as 51,597, the Kd (monoclonal RM2 antibody; 29 on microarray, printing concentration 6.25 μM, read-out: KD, surf) is reported as 5.13 nM and the Fmax (monoclonal RM2 antibody; 29 on microarray, printing concentration 12.5 μM) is reported as 50,900. The Kd (monoclonal RM2 antibody; 29 on microarray, printing concentration 12.5 μM, read-out: KD, surf) was 4.05 nM, the Fmax (monoclonal RM2 antibody; 29 on microarray, printing concentration 25 μM) was 50,970 and the Kd (monoclonal RM2 antibody; 29 on microarray, printing concentration 25 μM, read-out: KD, surf) was 4.5 nM. The Fmax (monoclonal RM2 antibody; 29 on microarray, printing concentration 50 μM) was 59,045, the Kd (monoclonal RM2 antibody; 29 on microarray, printing concentration 50 μM, read-out: KD, surf) was 6.44 nM and the Fmax (monoclonal RM2 antibody; 29 on microarray, printing concentration 100 μM) was 62,859. For the same molecule, the Kd (monoclonal RM2 antibody; 29 on microarray, printing concentration 100 μM, read-out: KD, surf) was 6.96 nM, the Kd (monoclonal RM2 antibody; [3]) was 5.76 ± 1.14 nM and the “binding of induced IgG antibodies to glycan” value [1] was “weaker binding”.

In the case of `CC(=O)NC1C(O[C@@H]2OC(CO)[C@H](O)C(O[C@@]3(C(=O)O)CC(O)[C@H](NC(C)=O)C([C@H](O)[C@H](O)CO)O3)C2O)[C@H](O)C(CO[C@]2(C(=O)O)CC(O)[C@@H](NC(C)=O)C([C@H](O)[C@H](O)CO)O2)O[C@H]1OC1C(O)[C@H](OCCCCCN)OC(CO)[C@@H]1O` (stereo partly shown) [Compound 30], the “binding of induced IgG antibodies to glycan” value [1] is reported as “weaker binding”.

`CC(=O)N[C@H]1[C@H](O[C@H]2[C@@H](O)[C@@H](CO)O[C@@H](OCCCCCN)[C@@H]2O)O[C@H](CO[C@]2(C(=O)O)C[C@H](O)[C@@H](NC(C)=O)[C@H]([C@H](O)[C@H](O)CO)O2)[C@@H](O)[C@@H]1O[C@@H]1O[C@H](CO)[C@H](O)[C@H](O)[C@H]1O` [Compound 28, (2R,4S,5R,6R)-5-acetamido-2-(((2R,3S,4R,5R,6S)-5-acetamido-6-((2R,3R,4S,5S,6R)-2-(5-aminopentyloxy)-3,5-dihydroxy-6-(hydroxymethyl)tetrahydro-2H-pyran-4-yloxy)-3-hydroxy-4-((2R,3R,4S,5R,6R)-3,4,5-trihydroxy-6-(hydroxymethyl)tetrahydro-2H-pyran-2-yloxy)tetrahydro-2H-pyran-2-yl)methoxy)-4-hydroxy-6-((1R,2R)-1,2,3-trihydroxypropyl)tetrahydro-2H-pyran-2-carboxylic acid] was tested, and the “binding of induced IgG antibodies to glycan” value [1] was “weaker binding”.

For `CC(=O)N[C@@H]1[C@@H]([C@H](O)[C@H](O)CO)O[C@](O[C@@H]2[C@@H](O)[C@H](O[C@H]3[C@H](O)[C@@H](CO[C@]4(C(=O)O)C[C@H](O)[C@@H](NC(C)=O)[C@H]([C@H](O)[C@H](O)CO)O4)O[C@@H](O[C@H]4[C@@H](O)[C@@H](CO)O[C@@H](OCCCCCN)[C@@H]4O)[C@@H]3NC(C)=O)O[C@H](CO)[C@@H]2O[C@@H]2O[C@H](CO)[C@H](O)[C@H](O)[C@H]2NC(C)=O)(C(=O)O)C[C@H]1O` [Compound 1], the “binding specificity of the antibody to printed oligosaccharides” value [2] was “recognize hexasaccharide 1 specifically”, the Fmax (monoclonal RM2 antibody; RM2 printing concentration 6.25 μM) was 45,483 and the Kd (monoclonal RM2 antibody; RM2 printing concentration 6.25 μM, read-out: KD, surf) was 4.72 nM. The Fmax (monoclonal RM2 antibody; RM2 printing concentration 12.5 μM) was 45,028, the Kd (monoclonal RM2 antibody; RM2 printing concentration 12.5 μM, read-out: KD, surf) was 3.14 nM and the Fmax (monoclonal RM2 antibody; RM2 printing concentration 25 μM) was 47,714. For the same molecule, the Kd (monoclonal RM2 antibody; RM2 printing concentration 25 μM, read-out: KD, surf) was 4.28 nM, the Fmax (monoclonal RM2 antibody; RM2 printing concentration 50 μM) was 53,982 and the Kd (monoclonal RM2 antibody; RM2 printing concentration 50 μM, read-out: KD, surf) was 5.48 nM. The Fmax (monoclonal RM2 antibody; RM2 printing concentration 100 μM) was 55,756, the Kd (monoclonal RM2 antibody; RM2 printing concentration 100 μM, read-out: KD, surf) was 5.1 nM and the “relative binding specificity of RM2 for the epitopes” value (monoclonal RM2 antibody; antibody RM2) was “RM2>pentasaccharide 29”. The Kd (monoclonal RM2 antibody; [3]) was 4.54 ± 0.903 nM, the “binding of induced IgG antibodies to glycan” value [1] was “strong binding” and the “binding … analogs and fragments” value [1] was “mainly bound”.

With `CC(=O)NC1C(OC2C(O)C(OCCCCCN)OC(CO)[C@H]2O)OC(CO[C@]2(C(=O)O)CC(O)[C@@H](NC(C)=O)C([C@H](O)[C@H](O)CO)O2)[C@@H](O)C1O` (stereo partly shown) [Compound 34] the “binding … analogs and fragments” value [1] was “a lesser extent”.

In the case of `CC(=O)N[C@H]1[C@H](OCCCCCN)O[C@H](CO[C@]2(C(=O)O)C[C@H](O)[C@@H](NC(C)=O)[C@H]([C@H](O)[C@H](O)CO)O2)[C@@H](O)[C@@H]1O` [Compound 33, (2R,4S,5R,6R)-5-acetamido-2-(((2R,3S,4R,5R,6R)-5-acetamido-6-(5-aminopentyloxy)-3,4-dihydroxytetrahydro-2H-pyran-2-yl)methoxy)-4-hydroxy-6-((1R,2R)-1,2,3-trihydroxypropyl)tetrahydro-2H-pyran-2-carboxylic acid], the “binding … analogs and fragments” value [1] is reported as “a lesser extent”.

For `CC(=O)N[C@H]1[C@H](O[C@H]2[C@@H](O)[C@@H](CO)O[C@@H](OCCCCCN)[C@@H]2O)O[C@H](CO[C@]2(C(=O)O)C[C@H](O)[C@@H](NC(C)=O)[C@H]([C@H](O)[C@H](O)CO)O2)[C@@H](O)[C@@H]1O` [Compound 27, (2R,4S,5R,6R)-5-acetamido-2-(((2R,3S,4R,5R,6S)-5-acetamido-6-((2R,3R,4S,5S,6R)-2-(5-aminopentyloxy)-3,5-dihydroxy-6-(hydroxymethyl)tetrahydro-2H-pyran-4-yloxy)-3,4-dihydroxytetrahydro-2H-pyran-2-yl)methoxy)-4-hydroxy-6-((1R,2R)-1,2,3-trihydroxypropyl)tetrahydro-2H-pyran-2-carboxylic acid], the “binding of induced IgG antibodies to glycan” value [1] was “weaker binding” and the “binding … analogs and fragments” value [1] was “mainly bound”.

Reference: US10086054B2, “RM2 antigens and use thereof” (ACADEMIA SINICA, priority 2013, dated 2018)
